Drawing on patent US7491794B2, “Macrocyclic compounds as inhibitors of viral replication” (Intermune, Inc., priority 2003, dated 2009), this text covers EC50 and IC50 for twelve compounds.

Assay [1] concerns HCV sub-genomic replicon, GS4.3. Nature of the assay: Quantitation by ELISA of NPTII in the HCV sub-genomic replicon, GS4.3, Section B. The assay is classed as cell-based. As to conditions: Hepatitis C virus, read-out: Replicon EC50. The source says: Quantitation by ELISA of the Selectable Marker Protein, Neomycin Phosphotransferase II (NPTII) in the HCV Sub-Genomic Replicon, GS4.3
The HCV sub-genomic replicon (1377/NS3-3′, accession No. AJ242652), stably maintained in HuH-7 hepatoma cells, was created by Lohmann et al. Science 285: 110-113 (1999). The replicon-containing cell culture, designated GS4.3, was obtained from Dr. Christoph Seeger of the Institute for Cancer Research, Fox Chase Cancer Center, Philadelphia, Pa.
GS4.3 cells were maintained at 37° C., 5% CO2, in DMEM (Gibco 11965-092) supplemented with L-glutamine 200 mM (100×) (Gibco25030-081), non-essential amino acids (NEAA)(Biowhittaker 13-114E), heat-inactivated (HI) Fetal Bovine Serum(FBS)(Hyclone SH3007.03) and 750 μg/ml geneticin (G418)(Gibco 10131-035). Cells were sub-divided 1:3 or 4 every 2-3 days.
24 hours prior to the assay, GS4.3 cells were collected, counted, and plated in 96-well plates (Costar 3585) at 7500 cells/well in 100 μl standard maintenance medium (above) and incubated in the conditions above. To initiate the assay, culture medium was removed, cells were washed once with PBS (Gibco 10010-023) and 90 μl Assay Medium (DMEM, L-glutamine, NEAA, 10% HI FBS, no G418) was added. Inhibitors were made as a 10× stock in Assay Medium, (3-fold dilutions from 10 μM to […] final concentration, final DMSO concentration 1%), 10 μl were added to duplicate wells, plates were rocked to mix, and incubated as above for 72 h.
An NPTII ELISA kit was obtained from AGDIA, Inc. (Compound direct ELISA test system for Neomycin Phosphotransferase II, PSP 73000/4800). Manufacturer's instructions were followed, with some modifications. 10×PEB-1 lysis buffer was made up to include 500 μM PMSF (Sigma P7626, 50 mM stock in isopropanol). After 72 h incubation, cells were washed once with PBS and 150 μl PEB-1 with PMSF was added per well. Plates were agitated vigorously for 15 minutes, room temperature, then frozen at −70° C. Plates were thawed, lysates were mixed thoroughly, and 100 μl were applied to an NPTII Elisa plate. A standard curve was made. Lysate from DMSO-treated control cells was pooled, serially diluted with PEB-1 with PMSF, and applied to duplicate wells of the ELISA plate, in a range of initial lysate amount of 150u1-2.5 ul. In addition, 100 μl buffer alone was applied in duplicate as a blank. Plates were sealed and gently agitated at room temperature for 2 h. Following capture incubation, the plates were washed 5×300 μl with PBS-T (0.5% Tween-20, PBS-T was supplied in the ELISA kit). For detection, a 1× dilution of enzyme conjugate diluent MRS-2 (5×) was made in PBS-T, into which 1:100 dilutions of enzyme conjugates A and B were added, as per instructions. Plates were resealed, and incubated with agitation, covered, room temperature, for 2 h. The washing was then repeated and 100 μl of room temperature TMB substrate was added. After approximately 30 minutes incubation (room temperature, agitation, covered), the reaction was stopped with 50 μl 3M sulfuric acid. Plates were read at 450 nm on a Molecular Devices Versamax plate reader.
Inhibitor effect was expressed as a percentage of DMSO-treated control signal, and inhibition curves were calculated using a 4-parameter equation: y=A+((B−A)/(1+((C/x)^D))), where C is half-maximal activity or EC50.

Assay [2] deals with T1, NS3-NS4A protease (Hepatitis C virus genotype 1a, UniProt P27958).
T1 construct: Recombinant E. coli or Baculovirus full-length NS3 was diluted to 3.33 μM with assay buffer; made in house; host or cells: E. coli or baculovirus (BV) system
Briefly: NS3-NS4A protease assay (NS3 inhibition assay, RETS1 substrate), Section B. The class given is biochemical. Summed up:
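Kinetic fluorescence read (335 nm excitation, 495 nm emission, 30 min) of RETS1 cleavage by NS3/NS4A-2 complex, 2 nM E. coli or 3 nM baculovirus NS3, after 10 min room-temperature compound pre-incubation. Four-parameter-fit IC50s converted to Ki by Cheng–Prusoff, Ki=IC50/(1+[S]/Km).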

Where two headings read alike, the source gives them in different places.

T1 sequence (P27958 1027-1657): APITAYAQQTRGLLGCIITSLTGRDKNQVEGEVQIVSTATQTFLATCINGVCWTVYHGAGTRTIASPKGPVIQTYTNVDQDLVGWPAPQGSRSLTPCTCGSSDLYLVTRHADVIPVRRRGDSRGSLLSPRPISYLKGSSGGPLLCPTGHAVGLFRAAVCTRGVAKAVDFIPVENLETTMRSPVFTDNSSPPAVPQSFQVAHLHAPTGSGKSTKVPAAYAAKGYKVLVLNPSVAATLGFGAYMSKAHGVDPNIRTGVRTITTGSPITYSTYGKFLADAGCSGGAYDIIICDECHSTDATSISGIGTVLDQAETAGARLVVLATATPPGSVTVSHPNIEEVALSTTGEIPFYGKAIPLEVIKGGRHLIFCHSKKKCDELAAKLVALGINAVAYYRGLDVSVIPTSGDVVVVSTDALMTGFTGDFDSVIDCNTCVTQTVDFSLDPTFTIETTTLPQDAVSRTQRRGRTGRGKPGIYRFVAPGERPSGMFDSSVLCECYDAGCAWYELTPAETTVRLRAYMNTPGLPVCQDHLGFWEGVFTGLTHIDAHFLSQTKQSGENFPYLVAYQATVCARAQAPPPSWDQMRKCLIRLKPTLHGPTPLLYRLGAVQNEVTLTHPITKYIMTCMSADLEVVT

On to `CC(C)(C)OC(=O)N[C@H]1CCCCC/C=C\[C@@H]2C[C@@]2(C(=O)NS(=O)(=O)C2CC2)NC(=O)[C@@H]2C[C@@H](OC(=O)N3CCc4cccc(C(F)(F)F)c4C3)CN2C1=O` [AR00298997, (1S,4R,6S,14S,18R)-8-Trifluoromethyl-3,4-dihydro-1H-isoquinoline-2-carboxylic acid 14-tert-butoxycarbonylamino-4-cyclopropanesulfonylaminocarbonyl-2,15-dioxo-3,16-diaza-tricyclo[14.3.0.0^4,6]nonadec-7-en-18-yl ester], for which the EC50 in assay [1] (GS4.3 cells, 72 h incubation) is less than 100 nM. For the same compound, the IC50 in assay [2] (read-out: NS3-NS4A IC50) is less than 100 nM.
For `CC(C)[C@@H](NC(=O)c1cnccn1)C(=O)N[C@H]1CCCCC/C=C\[C@@H]2C[C@@]2(C(=O)O)NC(=O)[C@@H]2C[C@@H](OC(=O)N3CCc4ccccc4C3)CN2C1=O` [AR00301338, (1S,4R,6S,14S,18R)-18-(3,4-Dihydro-1H-isoquinoline-2-carbonyloxy)-14-{3-methyl-2-[(pyrazine-2-carbonyl)-amino]-butyrylamino}-2,15-dioxo-3,16-diaza-tricyclo[14.3.0.0^4,6]nonadec-7-ene-4-carboxylic acid], the EC50 in assay [1] (72 h) is less than 10000 nM. The IC50 in assay [2] was less than 100 nM.
In the case of `CC(C)(C)OC(=O)N[C@H]1CCCCC/C=C\[C@@H]2C[C@@]2(C(=O)O)NC(=O)[C@@H]2C[C@@H](OC(=O)N3CCc4c(N)cccc4C3)CN2C1=O` [AR00301745, (1S,4R,6S,14S,18R)-18-(5-Amino-3,4-dihydro-1H-isoquinoline-2-carbonyloxy)-14-tert-butoxycarbonylamino-2,15-dioxo-3,16-diaza-tricyclo[14.3.0.0^4,6]nonadec-7-ene-4-carboxylic acid], in assay [1] (GS4.3 cells, 72 h incubation), the EC50 was less than 10000 nM. For the same compound, in assay [2] (read-out: NS3-NS4A IC50), the half-inhibitory concentration (IC50) was less than 1000 nM.
With `CC(C)(C)OC(=O)N[C@H]1CCCCC/C=C\[C@@H]2C[C@@]2(C(=O)NS(=O)(=O)C2CC2)NC(=O)[C@@H]2C[C@@H](OC(=O)N3CCc4ccc(Cl)cc4C3)CN2C1=O` [AR00301746, (1S,4R,6S,14S,18R)-7-Chloro-3,4-dihydro-1H-isoquinoline-2-carboxylic acid 14-tert-butoxycarbonylamino-4-cyclopropanesulfonylaminocarbonyl-2,15-dioxo-3,16-diaza-tricyclo[14.3.0.0^4,6]nonadec-7-en-18-yl ester], in assay [1] (GS4.3 cells, 72 h incubation), the EC50 was less than 100 nM. Further, the IC50 in assay [2] (read-out: NS3-NS4A IC50) is less than 100 nM.
As to `CC(C)(C)OC(=O)N[C@H]1CCCCC/C=C\[C@@H]2C[C@@]2(C(=O)NS(=O)(=O)C2CC2)NC(=O)[C@@H]2C[C@@H](OC(=O)N3CCc4cc(C(F)(F)F)ccc4C3)CN2C1=O` [AR00301747, (1S,4R,6S,14S,18R)-6-Trifluoromethyl-3,4-dihydro-1H-isoquinoline-2-carboxylic acid 14-tert-butoxycarbonylamino-4-cyclopropanesulfonylaminocarbonyl-2,15-dioxo-3,16-diaza-tricyclo[14.3.0.0^4,6]nonadec-7-en-18-yl ester], the EC50 in assay [1] (GS4.3 cells, 72 h incubation) was less than 100 nM. For the same compound, in assay [2] (read-out: NS3-NS4A IC50), the IC50 was less than 100 nM.
Turning to `CC(C)(C)OC(=O)N[C@H]1CCCCC/C=C\[C@@H]2C[C@@]2(C(=O)O)NC(=O)[C@@H]2C[C@@H](OC(=O)N3CCc4ccc(N)cc4C3)CN2C1=O` [AR00301749, (1S,4R,6S,14S,18R)-18-(7-Amino-3,4-dihydro-1H-isoquinoline-2-carbonyloxy)-14-tert-butoxycarbonylamino-2,15-dioxo-3,16-diaza— tricyclo[14.3.0.0^4,6]nonadec-7-ene-4-carboxylic acid], the EC50 in assay [1] (GS4.3 cells, 72 h incubation) is less than 10000 nM. Also, the half-maximal inhibitory concentration (IC50) in assay [2] (read-out: NS3-NS4A IC50) is less than 1000 nM.
As for `CC(C)(C)OC(=O)N[C@H]1CCCCC/C=C\[C@@H]2C[C@@]2(C(=O)NS(=O)(=O)C2CC2)NC(=O)[C@@H]2C[C@@H](OC(=O)N3CCc4cc(F)ccc4C3)CN2C1=O` [AR00301751, (1S,4R,6S,14S,18R)-6-Fluoro-3,4-dihydro-1H-isoquinoline-2-carboxylic acid 14-tert-butoxycarbonylamino-4-cyclopropanesulfonylaminocarbonyl-2,15-dioxo-3,16-diaza-tricyclo[14.3.0.0^4,6]nonadec-7-en-18-yl ester], the EC50 in assay [1] (GS4.3 cells, 72 h incubation) is less than 100 nM. The IC50 in assay [2] (read-out: NS3-NS4A IC50) is less than 100 nM.
`CC(C)(C)OC(=O)N[C@H]1CCCCC/C=C\[C@@H]2C[C@@]2(C(=O)O)NC(=O)[C@@H]2C[C@@H](OC(=O)N3CCc4nc(Nc5ccccc5)sc4C3)CN2C1=O` [AR00304000, (1S,4R,6S,14S,18R)-14-tert-Butoxycarbonylamino-2,15-dioxo-18-(2-phenylamino-6,7-dihydro-4H-thiazolo[5,4-c]pyridine-5-carbonyloxy)-3,16-diaza-tricyclo[14.3.0.0^4,6]nonadec-7-ene-4-carboxylic acid]: the EC50 in assay [1] (GS4.3 cells, 72 h incubation) is less than 10000 nM. The IC50 in assay [2] (read-out: NS3-NS4A IC50) was less than 1000 nM.
As for `CC(C)(C)OC(=O)N[C@H]1CCCCC/C=C\[C@@H]2C[C@@]2(C(=O)NS(=O)(=O)C2CC2)NC(=O)[C@@H]2C[C@@H](NC(=O)N3Cc4ccccc4C3)CN2C1=O` [AR00304008, (1S,4R,6S,14S,18R)-{4-Cyclopropanesulfonylaminocarbonyl-18-[(1,3-dihydro-isoindole-2-carbonyl)-amino]-2,15-dioxo-3,16-diaza-tricyclo[14.3.0.0^4,6]nonadec-7-en-14-yl}-carbamic acid tert-butyl ester], the EC50 in assay [1] (GS4.3 cells, 72 h incubation) is less than 100 nM. In assay [2] (read-out: NS3-NS4A IC50), the IC50 is less than 100 nM.
For `CC(C)(C)OC(=O)N[C@H]1CCCCC/C=C\[C@@H]2C[C@@]2(C(=O)O)NC(=O)[C@@H]2C[C@@H](NC(=S)N3CCc4ccccc4C3)CN2C1=O` [AR00304010, (1S,4R,6S,14S,18R)-14-tert-Butoxycarbonylamino-18-[(3,4-dihydro-1H-isoquinoline-2-carbothioyl)-amino]-2,15-dioxo-3,16-diaza-tricyclo[14.3.0.0^4,6]nonadec-7-ene-4-carboxylic acid], the EC50 in assay [1] (GS4.3 cells, 72 h incubation) was less than 10000 nM. Also, the IC50 in assay [2] (read-out: NS3-NS4A IC50) is less than 1000 nM.
The corresponding values for `CC(C)(C)OC(=O)N[C@H]1CCCCC/C=C\[C@@H]2C[C@@]2(C(=O)NS(=O)(=O)C2CC2)NC(=O)[C@@H]2C[C@@H](NC(=S)N3CCc4ccccc4C3)CN2C1=O` [AR00304012, (1S,4R,6S,14S,18R)-{4-Cyclopropanesulfonylaminocarbonyl-18-[(3,4-dihydro-1H-isoquinoline-2-carbothioyl)-amino]-2,15-dioxo-3,16-diaza-tricyclo[14.3.0.0^4,6]nonadec-7-en-14-yl}-carbamic acid tert-butyl ester] are less than 1000 nM and less than 100 nM.
Turning to `O=C(NC1CCCC1)N[C@H]1CCCCC/C=C\[C@@H]2C[C@@]2(C(=O)NS(=O)(=O)C2CC2)NC(=O)[C@@H]2C[C@@H](NC(=O)N3Cc4ccccc4C3)CN2C1=O` [AR00304014, (1S,4R,6S,14S,18R)-1,3-Dihydro-isoindole-2-carboxylic acid [14-(3-cyclopentyl-ureido)-4-cyclopropanesulfonylaminocarbonyl-2,15-dioxo-3,16-diaza-tricyclo[14.3.0.0^4,6]nonadec-7-en-18-yl]-amide], in assay [1] (GS4.3 cells, 72 h incubation), the EC50 is less than 100 nM. Also, in assay [2] (read-out: NS3-NS4A IC50), the IC50 is less than 100 nM.

In general, EC50 refers to the concentration needed to bring the measured effect to its halfway point. By IC50 is commonly meant the point on the concentration scale where inhibition reaches its midpoint.
